The values below come from US11377442B2, “Small molecule agonists and antagonists of NR2F6 activity” (ZANDER THERAPEUTICS, INC., priority 2016, dated 2022).

Common to all, as to assay type: cell-based
Assay [1] deals with T1, ERα (Homo sapiens, UniProt P03372).
T1 construct: expressed in transfected cells
T1 sequence (P03372 1-595): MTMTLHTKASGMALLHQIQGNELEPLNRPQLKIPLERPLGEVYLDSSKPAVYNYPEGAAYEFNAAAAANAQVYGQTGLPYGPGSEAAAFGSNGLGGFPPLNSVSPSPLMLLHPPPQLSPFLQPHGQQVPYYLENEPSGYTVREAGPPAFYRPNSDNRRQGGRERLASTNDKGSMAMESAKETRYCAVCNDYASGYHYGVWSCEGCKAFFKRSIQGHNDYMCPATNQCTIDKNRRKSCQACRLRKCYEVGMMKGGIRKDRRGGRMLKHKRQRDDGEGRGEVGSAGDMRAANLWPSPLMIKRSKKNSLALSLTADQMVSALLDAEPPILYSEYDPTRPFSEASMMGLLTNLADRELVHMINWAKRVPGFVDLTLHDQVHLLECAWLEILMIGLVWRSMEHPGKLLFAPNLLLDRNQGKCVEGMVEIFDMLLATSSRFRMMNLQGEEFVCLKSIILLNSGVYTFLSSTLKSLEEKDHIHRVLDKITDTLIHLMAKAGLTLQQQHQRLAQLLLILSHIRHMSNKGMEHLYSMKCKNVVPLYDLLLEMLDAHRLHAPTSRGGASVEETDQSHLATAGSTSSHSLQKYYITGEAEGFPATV
Nature of the assay: Counterscreening, Firefly signal with ERα transient transfection (Firefly_ERa). As to conditions: 10 uM. As to the method: The methodology for screening candidate compounds as NR2F6 agonists was as follows: For primary screening, hit criteria was ACT %>DMSO control+5*SD (DSO control) at 10 μM, or any compound with S/B>2. For rescreening, hit criteria was ACT %>DMSO control+3*SD (DSO control) in each replicate at 10 μM. For counterscreening, hit criteria was mean ACT<DMSO control+3*SD (DMSO control) with ERα transient transfection in duplicate at 10 μM.
(The purpose of a counterscreen is to sort out artefacts and off-target activity.)

In assay [2] the target is T1, ERα. The assay is described as above.
The next assay deals with T2, NR2F6 (Homo sapiens, UniProt P10588).
T2 construct: expressed in transfected cells; also transient transfection
T2 sequence (P10588 1-404): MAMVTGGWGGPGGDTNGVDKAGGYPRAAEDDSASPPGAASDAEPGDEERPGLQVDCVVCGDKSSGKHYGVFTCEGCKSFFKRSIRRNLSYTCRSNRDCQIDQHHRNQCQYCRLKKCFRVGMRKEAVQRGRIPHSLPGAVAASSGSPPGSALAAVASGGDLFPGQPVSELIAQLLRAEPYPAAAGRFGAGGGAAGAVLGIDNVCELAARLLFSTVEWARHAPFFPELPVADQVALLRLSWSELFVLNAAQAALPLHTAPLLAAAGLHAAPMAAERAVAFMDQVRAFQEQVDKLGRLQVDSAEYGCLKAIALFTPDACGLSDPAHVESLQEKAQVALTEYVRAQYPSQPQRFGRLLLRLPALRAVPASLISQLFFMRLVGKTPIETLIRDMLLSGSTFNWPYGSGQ
Nature of the assay: NR2F6 agonist screening, Firefly signal cmpd/DMSO. As to conditions: clone F4.

The subject of another assay is Renilla_ERa. Nature of the assay: Renilla signal in ERα counterscreen (Renilla_ERa). As to conditions: read-out: Renilla ERalpha transient, cmpd/DMSO (mean).
In another assay the test system is Renilla. In words: Renilla signal in NR2F6 agonist screening, cmpd/DMSO. As to conditions: Renilla, clone F4, read-out: Renilla F4, cmpd/DMSO (mean).

As for `CCOC(=O)c1cnc2c(Cl)cc(Cl)cc2c1NCCCN1CCCCC1` [Compound Z37], the “Firefly ERalpha transient, cmpd/DMSO (mean)” value is recorded as 1.5 at ERα [1], 1.1 at ERα [2] (2 uM) and 1.2 on ERα [2] (40 uM). Besides, the entries for the “Firefly F4, cmpd/DMSO (mean)” value on NR2F6 (2 uM), on NR2F6 (10 uM) and at NR2F6 (40 uM) were 1.0, 1.4 and 0.7, respectively. For the same molecule, the fold induction at 2 µM in the assay on Renilla_ERa and in the assay with Renilla was 1 in each case. In addition, the fold induction at 10 µM amounted to 1.7 in the assay with Renilla_ERa and 0.9 in the assay with Renilla. Also, the fold induction at 40 µM in the assay on Renilla_ERa worked out at 0.7; in the assay on Renilla, 0.5.

In the case of `COc1ccc2nc(C(F)(F)F)c(C#N)c(NCc3ccc(Cl)cc3)c2c1` [Compound Z38], the “Firefly ERalpha transient, cmpd/DMSO (mean)” value on ERα [1] is reported as 0.5; at ERα [2] (2 uM) it was 0.9; at ERα [2] (40 uM), 0.5. The “Firefly F4, cmpd/DMSO (mean)” value at NR2F6 (2 uM) is 0.5; at NR2F6 (10 uM), 0.8; at NR2F6 (40 uM) it was 0.6. Further, the fold induction at 2 µM worked out at 0.9 in the assay with Renilla_ERa and 0.7 in the assay with Renilla. Further, the fold induction at 10 µM with Renilla_ERa and in the assay on Renilla was 0.6 in each case. Besides, the values for the fold induction at 40 µM with Renilla_ERa and in the assay with Renilla were 0.6 and 0.4, respectively.

For the molecule `COc1ccc2nc(C(F)(F)F)c(C#N)c(NCCc3ccc(Cl)cc3)c2c1` [Compound Z39], the “Firefly ERalpha transient, cmpd/DMSO (mean)” value at ERα [1] stood at 0.5; at ERα [2] (2 uM), 1.2; on ERα [2] (40 uM), 0.8. The entries for the “Firefly F4, cmpd/DMSO (mean)” value on NR2F6 (2 uM), at NR2F6 (10 uM) and at NR2F6 (40 uM) were 0.8, 1.0 and 0.7, respectively. The fold induction at 2 µM is 1.1 in the assay with Renilla_ERa and 0.7 with Renilla. Moreover, the fold induction at 10 µM in the assay with Renilla_ERa came to 0.6; with Renilla, 0.5. Also, the results for the fold induction at 40 µM in the assay on Renilla_ERa and with Renilla were 0.6 and 0.5, respectively.

As for `COc1ccc2nc(C(F)(F)F)c(C#N)c(NCCOc3ccc(Cl)cc3)c2c1` [Compound Z40], the “Firefly ERalpha transient, cmpd/DMSO (mean)” value turned out to be 0.3 at ERα [1], 1.0 at ERα [2] (2 uM) and 1.0 at ERα [2] (40 uM). Also, the “Firefly F4, cmpd/DMSO (mean)” value on NR2F6 (2 uM) is given as 0.8; on NR2F6 (10 uM), 0.7; at NR2F6 (40 uM) it was 0.8. Further, the fold induction at 2 µM in the assay on Renilla_ERa was 1; in the assay with Renilla, 0.7. The fold induction at 10 µM in the assay with Renilla_ERa worked out at 0.7; in the assay with Renilla, 0.6. Also, the fold induction at 40 µM was 0.6 in the assay on Renilla_ERa and 0.5 in the assay on Renilla.

Take `COc1ccc2nc(C(F)(F)F)c(C#N)c(N3CCN(C)CC3)c2c1` [Compound Z41]: the “Firefly ERalpha transient, cmpd/DMSO (mean)” value at ERα [1] amounted to 1.4; at ERα [2] (2 uM), 0.9; at ERα [2] (40 uM) it was 1.6. Further, the “Firefly F4, cmpd/DMSO (mean)” value on NR2F6 (2 uM) came to 1.0; on NR2F6 (10 uM) it was 1.1; on NR2F6 (40 uM), 1.7. Also, the fold induction at 2 µM was 1 with Renilla_ERa and 0.7 in the assay with Renilla. Further, the values for the fold induction at 10 µM in the assay with Renilla_ERa and in the assay on Renilla were 1.1 and 0.6, respectively. Besides, the fold induction at 40 µM in the assay with Renilla_ERa turned out to be 0.8; in the assay on Renilla, 0.6.

On to `Cc1ccc(CCCNc2c(C#N)c(C(F)(F)F)nc3ccc(Oc4ccccc4)cc23)cc1` [Compound Z42], for which the “Firefly ERalpha transient, cmpd/DMSO (mean)” value came out at 1.8 at ERα [1], 1.5 at ERα [2] (2 uM) and 1.1 at ERα [2] (40 uM). In addition, the “Firefly F4, cmpd/DMSO (mean)” value came out at 0.9 at NR2F6 (2 uM), 0.9 at NR2F6 (10 uM) and 0.6 at NR2F6 (40 uM). Also, the fold induction at 2 µM was 1.1 with Renilla_ERa and 1.2 in the assay on Renilla. The fold induction at 10 µM with Renilla_ERa and in the assay with Renilla was 0.9 each time. For the same molecule, the fold induction at 40 µM in the assay with Renilla_ERa and with Renilla was 0.7 each time.

For the molecule `N#Cc1c(C(F)(F)F)nc2ccc(Cl)cc2c1N1CCOCC1` [Compound Z43], the “Firefly ERalpha transient, cmpd/DMSO (mean)” value on ERα [1] was 0.9; on ERα [2] (2 uM) it was 1.4; on ERα [2] (40 uM) it was 1.6. Moreover, the “Firefly F4, cmpd/DMSO (mean)” value on NR2F6 (2 uM) came out at 1.3; at NR2F6 (10 uM), 0.8; on NR2F6 (40 uM), 0.8. The fold induction at 2 µM in the assay with Renilla_ERa and in the assay with Renilla was 1 throughout. The figures for the fold induction at 10 µM in the assay with Renilla_ERa and with Renilla were 1 and 0.9, respectively. The results for the fold induction at 40 µM with Renilla_ERa and with Renilla were 0.9 and 0.7, respectively.

For the molecule `COc1ccc(-c2cc3n(n2)C(N)=C(C#N)C(c2c[nH]c4ccccc24)(C(F)(F)F)N3)cc1OC` (stereo not drawn) [Compound Z44], the “Firefly ERalpha transient, cmpd/DMSO (mean)” value at ERα [1] is given as 1.2; on ERα [2] (2 uM) it was 1.2; on ERα [2] (40 uM), 1.0. Further, the “Firefly F4, cmpd/DMSO (mean)” value at NR2F6 (2 uM) was determined as 0.8; at NR2F6 (10 uM), 0.8; at NR2F6 (40 uM) it was 0.4. Besides, the fold induction at 2 µM in the assay on Renilla_ERa worked out at 1.1; in the assay on Renilla, 1.7. The figures for the fold induction at 10 µM in the assay on Renilla_ERa and in the assay with Renilla were 0.9 and 1.5, respectively. Moreover, the fold induction at 40 µM in the assay on Renilla_ERa stood at 0.5; in the assay on Renilla it was 0.3.

Turning to `COc1ccc(-c2cc3n(n2)C(N)=C(C#N)C(c2ccc(N4CCOCC4)cc2)(C(F)(F)F)N3)cc1OC` (stereo not drawn) [Compound Z45], the “Firefly ERalpha transient, cmpd/DMSO (mean)” value is given as 0.6 at ERα [1], 0.8 on ERα [2] (2 uM) and 0.7 on ERα [2] (40 uM). Moreover, the “Firefly F4, cmpd/DMSO (mean)” value was determined as 0.8 at NR2F6 (2 uM), 1.2 on NR2F6 (10 uM) and 0.5 on NR2F6 (40 uM). The fold induction at 2 µM in the assay with Renilla_ERa amounted to 1.1; in the assay with Renilla it was 1.2. The fold induction at 10 µM in the assay on Renilla_ERa was determined as 0.8; with Renilla, 1.2. Also, the fold induction at 40 µM was 1 in the assay on Renilla_ERa and 1.1 in the assay with Renilla.

In the case of `COC(=O)CNc1c(C#N)c(C(F)(F)F)nc2ccc(OC)cc12` [Compound Z46], the “Firefly ERalpha transient, cmpd/DMSO (mean)” value at ERα [1] is listed as 0.8; on ERα [2] (2 uM), 0.9; on ERα [2] (40 uM), 0.6. The “Firefly F4, cmpd/DMSO (mean)” value at NR2F6 (2 uM) turned out to be 0.6; on NR2F6 (10 uM) it was 0.8; at NR2F6 (40 uM), 0.6. Besides, the fold induction at 2 µM in the assay on Renilla_ERa and in the assay with Renilla was 0.9 in each case. For the same molecule, the fold induction at 10 µM turned out to be 1 with Renilla_ERa and 0.8 in the assay on Renilla. In addition, the fold induction at 40 µM with Renilla_ERa turned out to be 1; with Renilla, 0.6.

On to `COC(=O)c1[nH]c2c(c(C(F)(F)F)nc3ccc(OC)cc32)c1N` [Compound Z47], for which the “Firefly ERalpha transient, cmpd/DMSO (mean)” value on ERα [1] turned out to be 1.0; at ERα [2] (2 uM), 0.9; on ERα [2] (40 uM), 1.7. In addition, the “Firefly F4, cmpd/DMSO (mean)” value is listed as 0.9 on NR2F6 (2 uM), 1.3 on NR2F6 (10 uM) and 2.0 on NR2F6 (40 uM). The fold induction at 2 µM with Renilla_ERa stood at 1.2; in the assay with Renilla it was 1.1. Also, the fold induction at 10 µM with Renilla_ERa is 1.4; in the assay with Renilla, 1.2. In addition, the fold induction at 40 µM came out at 1.2 in the assay with Renilla_ERa and 1.7 in the assay on Renilla.
